US20090012009A1, “Composition and Method for Treating Inflammatory Disease” (priority 2007, published 2009)

Legend:
hFR-β = biological target: T1, hFR-β (Homo sapiens, UniProt P14207); assay: Relative binding affinity of folate-hapten conjugates, displacement of 3H-folic acid from CHO-β cells; conditions: 10 nM 3H-folic acid
T1 construct: expressed in transfected cells; host or cells: CHO-β cells (CHO cells expressing hFR-β)
Experimental: The relative binding affinities of folate-hapten conjugates to hFR-β were examined using a previously described method (Reddy et al., 2004). CHO-β cells expressing hFR-β were seeded on 48-well plates at 70% confluence and cultured at 37° C. in folate-deficient RPMI1640 medium (Invitrogen, CA, USA) supplemented with 1× penicillin/streptomycin (Gibco, Calif., USA) and 10% fetal bovine serum (FBS) (Atlanta Biologicals, GA, USA) in a 5% CO2 humidified incubator. Twenty-four hours later, cells were washed twice with PBS (pH 7.4), after which a 10 nM solution of ^3H-folic acid (GE Healthcare, NJ, USA) was added with increasing concentrations (10^−10M to 10^−5M) of either folate-FITC, folate-DNP1, folate-DNP2, folate-DNP3, or folate-TNP in cell culture medium. Cells were incubated at 37° C. for 1 h and washed 3× with 0.5 ml PBS. 0.5 ml of 1.0% sodium dodecyl sulfate (SDS) in PBS was added to each well, and after 5 min, cell lysates were collected and transferred to vials containing scintillation cocktail and counted for radioactivity. Relative binding affinity was defined as the molar ratio required for displacement of 50% of bound ^3H-folic acid from the cell surface.

arthritic rats [1] = assay: Paw volumes of non-injected hind paws, adjuvant-induced arthritis in rats; assay type: in vivo, rat; conditions: i.p. 5×/week, 30 or 200 nmol/kg (folate-FITC 100 nmol/kg)
Experimental: (§1) Experimental adjuvant-induced arthritis was induced according to a previously described method (Paulos et al., 2006; van Eden et al., 1996). Briefly, adjuvant was prepared by adding finely ground heat-killed Mycobacterium butyricum(Difco Laboratories, MI, USA) in mineral oil (Sigma-Aldrich, MO, USA) at a final concentration of 1 mg/ml. The adjuvant was kept under constant stirring to ensure homogenous distribution of the mycobacterial particles. Immunized rats were anesthetized with ketamine and xylazine (100 mg/kg and 13 mg/kg, respectively) and injected in the right hind paw with 100 μl of the mycobacterial suspension. Paw inflammation was monitored daily until the first symptoms of RA appeared on the left, non-injected hind paw. […]
(§2) To compare the efficacies of the various folate-hapten conjugates in treating RA, arthritic rats were injected i.p. 5×/week with either: 1) vehicle alone (PBS), 2) 100 nmol/kg of folate-FITC, 3) 30 nmol/kg folate-DNP1, 4) 200 nmol/kg folate-DNP1, 5) 30 nmol/kg folate-DNP2, 6) 200 nmol/kg folate-DNP2, 7) 30 nmol/kg folate-DNP3, 8) 200 nmol/kg folate-DNP3, 9) 30 nmol/kg folate-TNP, or 10) 200 nmol/kg folate-TNP. Paw volumes, arthritis scores, spleen enlargement, bone degradation, and the biodistribution of FR+macrophages were then quantitated as a function of time during therapy, as described below. […]

arthritic rats [2] = assay: Arthritis scores, adjuvant-induced arthritis in rats; assay type: in vivo, rat; conditions: i.p. 5×/week; scale 0-4, scored 2×/week
Experimental: as §1, §2

[3] = tested on: FR-β+ activated macrophages; assay: 99mTc-EC20 biodistribution in spleens and livers of arthritic rats; assay type: in vivo, rat; conditions: 4 h after i.p. 99mTc-EC20 (67 nmol/kg); versus PBS-treated group
Experimental: To compare the efficacies of the various folate-hapten conjugates in treating RA, arthritic rats were injected i.p. 5×/week with either: 1) vehicle alone (PBS), 2) 100 nmol/kg of folate-FITC, 3) 30 nmol/kg folate-DNP1, 4) 200 nmol/kg folate-DNP1, 5) 30 nmol/kg folate-DNP2, 6) 200 nmol/kg folate-DNP2, 7) 30 nmol/kg folate-DNP3, 8) 200 nmol/kg folate-DNP3, 9) 30 nmol/kg folate-TNP, or 10) 200 nmol/kg folate-TNP. Paw volumes, arthritis scores, spleen enlargement, bone degradation, and the biodistribution of FR+macrophages were then quantitated as a function of time during therapy, as described below.
Paw volumes were measured 2×/week by multiplying length, height, and width of the non-injected hind paw (Paulos et al., 2006). […] Spleen enlargement was assessed 25 days after initial treatment by euthanizing the animal and measuring the weight of the resected organs. Bone degradation of the non-injected hind paw was evaluated by x-ray radiography in one representative rat from each hapten group treated at 200 nmol/kg folate-hapten conjugate. The biodistribution of FR+ macrophages in each treatment group was also quantified using the FR-targeted radioimaging agent, ^99mTc-EC20, which was prepared as described previously (Turk et al., 2002). Briefly, each rat was injected i.p. with 500 μCi of radioactivity at a dose of 67 nmol/kg of EC20. […]

arthritic rats [4] = conditions: previous dosing studies; cited from earlier work

T1 sequence (P14207 17-230): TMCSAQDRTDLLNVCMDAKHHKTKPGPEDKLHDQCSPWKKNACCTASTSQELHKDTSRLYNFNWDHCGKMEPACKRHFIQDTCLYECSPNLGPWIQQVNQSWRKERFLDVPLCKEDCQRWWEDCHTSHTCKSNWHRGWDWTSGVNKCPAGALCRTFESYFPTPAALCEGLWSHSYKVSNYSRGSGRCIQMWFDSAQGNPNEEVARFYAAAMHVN

Structure (SMILES) | rank order of binding affinity of the folate-hapten conjugates (hFR-β) | paw swelling (volume changes in non-injected hind paws) (arthritic rats [1]) | relative potencies in preventing the increase in arthritis score (arthritic rats [2]) | uptake of 99mTc-EC20 in spleens and livers [3] | daily dose giving optimal responses (arthritic rats [4])
Nc1nc2ncc(CNc3ccc(C(=O)N[C@H](CCC(=O)N[C@H](CCCCNc4c([N+](=O)[O-])cc([N+](=O)[O-])cc4[N+](=O)[O-])C(=O)O)C(=O)O)cc3)nc2c(=O)[nH]1 [folate-TNP] | folate-DNP3>folate-DNP2>folate-DNP 1>folate-TNP>folate-FITC | more effective than any of the folate-DNP conjugates, but similar in potency to folate-FITC | TNP=FITC>DNP1>DNP2>DNP3 | folate-DNP1 and folate-DNP2 appeared to be superior | –
Nc1nc2ncc(CNc3ccc(C(=O)NC(CCC(=O)NCCNC(=S)Nc4ccc(C(=O)O)c(-c5c6ccc(=O)cc-6oc6cc(O)ccc56)c4)C(=O)O)cc3)nc2c(=O)[nH]1 (stereo not shown) [folate-FITC, reference compound] | folate-DNP3>folate-DNP2>folate-DNP 1>folate-TNP>folate-FITC | – | TNP=FITC>DNP1>DNP2>DNP3 | – | 100 nmol/kg
